# Laboratory results: article PMC7665585, “Antidepressive effect of an inward rectifier K^+ channel blocker peptide, tertiapin-RQ” (PLoS ONE, 2020)
# Entries after “also recorded” stand apart in the source; their conditions may differ. Bridge positions count the residues as written; N and C are the ends. Ends that are not written are not given here. Peptide text beside a SMILES is read from it.
# Legend:
# [1] = biological target: T1, rat ROMK (Rattus norvegicus, UniProt P35560); experiment: Whole-cell patch-clamp of ROMK currents in 208–4 cells; type: cell-based; details: for inhibition at 1 µM: n = 3–6, read-out: Activity (ROMK channel blocking activity, percentage of blockade at 1 μM)
# T1 construct: expressed in transfected cells; host or cells: 293T cell line 208-4 (lentiviral transduction, GFP coexpressed)
# T1 sequence (P35560 1-391): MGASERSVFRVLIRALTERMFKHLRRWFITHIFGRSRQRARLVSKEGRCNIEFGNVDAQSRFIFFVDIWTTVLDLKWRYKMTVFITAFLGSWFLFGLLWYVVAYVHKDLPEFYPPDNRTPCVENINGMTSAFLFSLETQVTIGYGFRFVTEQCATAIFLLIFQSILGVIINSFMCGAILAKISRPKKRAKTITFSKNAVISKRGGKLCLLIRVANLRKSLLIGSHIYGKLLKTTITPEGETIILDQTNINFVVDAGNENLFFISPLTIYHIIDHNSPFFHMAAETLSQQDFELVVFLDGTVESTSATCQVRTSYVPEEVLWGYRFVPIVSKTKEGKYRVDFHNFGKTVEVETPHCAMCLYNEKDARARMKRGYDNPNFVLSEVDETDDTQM
# Method in brief: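 ROMK stably expressed in 208–4 cells; GIRK transiently in 293T, recorded 24 h post-transfection; 25°C, Tyrode (high-K+ 50 mM for GIRK), K-aspartate/KCl pipette with 3 mM MgATP. Steps −150 to 10 mV from −70 mV; currents 60 s after peptide; conductance from I-V slope −140 to −100 mV, Ba2+-resistant current subtracted, normalized to 0 μM TPN.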
# [2] = test system: Male ICR mice; experiment: Tail suspension test (TST); type: in vivo, mouse
# Method: We performed mouse behavioral experiments in accordance with our previous study. Male ICR mice (n = 199 in total) aged 5 weeks old were purchased from Shimizu Laboratory Supplies (Kyoto, Japan) and maintained in an animal facility for 7–12 days. They had free access to food and water and were kept in a 12-h light/dark cycle (08:00–20:00). Experiments were carried out between 11:00 and 17:00 in a quiet and air-conditioned experimental room, to which mice were habituated for 30–60 min before each experiment. Animal experiments were performed in accordance with the guidelines of the Physiological Society of Japan and were approved by the Committee for Animal Experiments of Kurashiki University of Science and the Arts. Peptides were dissolved in phosphate-buffered saline (PBS). Peptides were injected intracerebroventricularly (i.c.v.) 30 min before behavioral tests (typically 5 μL/mouse), according to a previous study. The mouse was placed into an anesthetizing jar, to which isoflurane (0.2 mL) was added immediately before. After confirming that the mouse was deeply anesthetized we injected the peptide into the right cerebral ventricle over 30 seconds and the injection needle was kept for 1 min after the injection (i.c.v. coordinates: 0 mm caudal to bregma, 1.0 mm lateral to the midline, and 3.5 mm below the skull). The mouse was placed in a cage set on a heating pad (approximately 33°C) for a few minutes until it spontaneously started to move, and then it was put back into its home cage. Each animal was used only once, except for the wheel running test, which was carried out immediately after the elevated plus-maze.
# The tail suspension test (TST) was performed in accordance with the method reported previously. The mouse was hung on a hook using adhesive tape placed 2 cm from the extremity of its tail 50 cm above a table. The amount of time spent immobile was recorded for 5 min.
# [3] = test system: Male ICR mice; experiment: Forced swim test (FST); type: in vivo, mouse; details: i.c.v., 30 min before test, last 4 min of 6 min
# Method: We performed mouse behavioral experiments in accordance with our previous study. Male ICR mice (n = 199 in total) aged 5 weeks old were purchased from Shimizu Laboratory Supplies (Kyoto, Japan) and maintained in an animal facility for 7–12 days. They had free access to food and water and were kept in a 12-h light/dark cycle (08:00–20:00). Experiments were carried out between 11:00 and 17:00 in a quiet and air-conditioned experimental room, to which mice were habituated for 30–60 min before each experiment. Animal experiments were performed in accordance with the guidelines of the Physiological Society of Japan and were approved by the Committee for Animal Experiments of Kurashiki University of Science and the Arts. Peptides were dissolved in phosphate-buffered saline (PBS). Peptides were injected intracerebroventricularly (i.c.v.) 30 min before behavioral tests (typically 5 μL/mouse), according to a previous study. The mouse was placed into an anesthetizing jar, to which isoflurane (0.2 mL) was added immediately before. […]
# The forced swim test (FST) was performed in accordance with the method reported previously. […] The mouse was allowed to swim for 6 min and its activity was measured. […]
# [4] = blockade at 1 μM estimated from fitted Hill curve (four parameters), whole-cell conductance
molecule,measurement,setting,value
TPN-RQ(C3S) [Peptide 45],"Activity (ROMK channel blocking activity, percentage of blockade at 1 μM)","[1]; blockade at 1 μM estimated from fitted Hill curve (four parameters), whole-cell conductance, n = 3–6","- (-, <20%)"
same,ROMK blocking activity (in words),"[1]; whole-cell recordings, listed as TPN-C3S",little blocking activity; also recorded: scarcely blocked the channel
same,immobile time in TST,"[2]; 750 pmole i.c.v., 30 min before test, 5 min recording",decreased the immobile time insignificantly
same,immobile time in FST,[3],decreased the immobile time insignificantly
O=[N+]([O-])c1ccc2nc(COCc3nc4ccc([N+](=O)[O-])cc4[nH]3)[nH]c2c1 [VU591],immobile time in TST,"[2]; i.c.v., 5 μL of 20 mM in dimethyl sulfoxide, n = 4 and 5",significantly decreased the immobile time
"CC[C@H](C)[C@@H]1NC(=O)[C@H](CCCNC(=N)N)NC(=O)[C@H](CCCNC(=N)N)NC(=O)[C@H](CC(N)=O)NC(=O)[C@@H]2CSSC[C@@H](C(=O)NCC(=O)N[C@@H](C)C(=O)N[C@@H](CCCCN)C(N)=O)NC(=O)[C@H](CCCCN)NC(=O)[C@H](CCCCN)NC(=O)[C@H](Cc3c[nH]c4ccccc34)NC(=O)[C@H](CSSC[C@H](NC(=O)[C@H](CC(C)C)NC(=O)[C@H](C)N)C(=O)N[C@@H](CC(N)=O)C(=O)N2)NC(=O)[C@H](CCC(N)=O)NC(=O)[C@H](Cc2c[nH]cn2)NC(=O)[C@@H]2CCCN2C(=O)[C@H]([C@@H](C)CC)NC1=O [Peptide 68, TPN-RQ(K20A)] (H-ALCNCNRRIIPHQCWKKCGAK-NH2; disulfide 3-14, 5-18)",inhibition at 1 µM,[1]; [4],40 to 60%
"CC[C@H](C)[C@@H]1NC(=O)[C@H](CCCNC(=N)N)NC(=O)[C@H](CCCNC(=N)N)NC(=O)[C@H](CC(N)=O)NC(=O)[C@H](CO)NC(=O)[C@H](CC(N)=O)NC(=O)[C@@H](NC(=O)[C@@H](N)CCC(N)=O)CSSC[C@@H](C(=O)N[C@@H](Cc2c[nH]c3ccccc23)C(=O)N[C@@H](CCCCN)C(N)=O)NC(=O)[C@H](CCC(N)=O)NC(=O)[C@H](CCCCN)NC(=O)[C@@H]2CCCN2C(=O)[C@H]([C@@H](C)CC)NC1=O [Peptide 44, Q + TPN-RQ 3-16(C5S/H12K)] (H-QCNSNRRIIPKQCWK-NH2; disulfide 2-13)",inhibition at 1 µM,[1]; [4],< 20%
"RRIIPAQK-NH2 [Peptide 28, TPN-RQ 7-13(H12A) + K]",inhibition at 1 µM,[1]; [4],< 20%
